From patent US20110166079A1, “METHODS OF TREATING CANCER WITH APOE PEPTIDES” (COGNOSCI, INC., priority 2008, published 2011)

Columns and labels:
IκB Kinase (IκK) = experiment: IκK activity ELISA in YAMC cells exposed to C. rodentium; assay type: cell-based, mouse; details: FIG. 2D
Protocol: Akt kinase can phosphorylate and activate IκB Kinase (IκK), which leads to the de-repression of NFκB by IκB. As described above, COG peptides reduce phosphorylation of IκB and subsequent activation of NFκB induced by a Toll-like receptor 4 agonist (LPS). To determine if COG peptides also affect IκK activation, IκK activity was assessed in cytoplasmic cellular lysates of young adult mouse colon (YAMC) cells exposed to C. rodentium bacteria alone or in the presence of COG112 (SEQ ID NO: 2). IκK activity was measured using a specific ELISA assay (K-LISATM detection kit, Calbiochem/EMD Biosciences). Cytosolic cell extracts were incubated in glutathionine coated wells of a 96-well plate with a glutathione S transferase (GST)-tagged IκB-α fusion polypeptide substrate that includes the Ser32 and Ser36 IκB-α kinase phosphorylation sites. Phosphorylated GST-IκB-α substrate was detected using horseradish peroxidase-conjugated anti-phospho-IκB-α antibody. Optical density proportional to kinase activity was measured at 450 nm in a plate reader. The time course of IκK activation induced by C. rodentium in the presence (closed squares) or absence (open squares) of COG112 is shown in FIG. 2D. Time 0 indicates cells that were not stimulated with C. rodentium.

[1] = Cytotoxicity on PBMC from normal volunteers; assay type: cell-based; details: human, FIG. 4
Protocol: Additional B-CLL cells and peripheral blood mononuclear cells (PBMC; i.e., normal B cells) were isolated from leukemia patients and normal volunteers, respectively, and were treated with a range of COG112 concentrations.

B-CLL cells = experiment: Annexin V / propidium iodide apoptosis assay on B-CLL cells; assay type: cell-based, human
Protocol: In a first series of experiments, apoptosis assays using Annexin V staining were performed on freshly isolated B-CLL cells to determine if COG112 could reverse the anti-apoptotic state in these cells and induce apoptosis. […] Apoptosis was measured using the Annexin V-FITC apoptosis detection kit (BD Biosciences-Pharmingen). COG-treated and untreated cells were Annexin V-FITC- and propidium iodide-stained for 15 minutes in 1× binding buffer (10 mM HEPES, pH 7.4, 140 mM NaCl, 2.5 mM CaCl2) and analyzed by flow cytometry. One aliquot of cells was treated with 100 μg/mL etoposide as a positive control for apoptosis induction.

[2] = tested on: BCR/Abl+ K562 CML cell line; experiment: Growth of BCR/Abl+ K562 CML cells (trypan blue counting); assay type: cell-based
Protocol: Cells (20 mL) were seeded in a T-75 flask at a concentration of 0.25×10^6 cells/mL. Each day after seeding, 0.20 mL of cell suspension was removed and centrifuged to collect cells. The cell pellet was resuspended in 500 μL of serum free media and 100 μL of trypan blue stain was added and incubated for 5 minutes before counting the […] cells with a hemacytometer.

BCR/ABL fusion protein = experiment: Phospho-BCR/ABL Western blot in K562 cells; assay type: cell-based; details: COG112 0.5 or 1 μM, 24 hours, FIG. 8A
Protocol: As discussed above, constitutive activation of the BCR/ABL fusion protein produced by the Philadelphia chromosome (e.g. product of the t(9;22)(q34;q11) translocation) is the primary causative factor in the persistent signaling that leads to unrestrained cell proliferation and survival in CML. […] Cell lysates were prepared and subject to Western blot analysis to detect activated phospho-BCR/ABL.

PP2A = PP2A activity in K562 CML cells (immunoprecipitation / phosphate release); assay type: cell-based; details: COG112 0.5 μM or 1 μM, 24 hours, FIG. 8B
Jurkat T-cells = experiment: Growth of Jurkat T-cell leukemia cells; assay type: cell-based, human; details: 1 μM COG112, FIG. 9
Protocol: To determine whether ApoE peptides could be therapeutic for T-cell leukemia, the effect of COG112 on the growth rate of Jurkat T-cells, a human acute T-cell leukemia cell line, was assessed. Jurkat T-cells (2×10^4 cells per well in a 6 well plate) were grown in 2 mL of media in the absence or presence of 1 μM COG112 added upon plating the cells. Cell growth was measured using a hemacytometer following daily removal of a small aliquot for counting.

Eμ-TCL1 transgenic mice = experiment: CLL in Eμ-TCL1 transgenic mice treated with COG112; assay type: in vivo, mouse
Source text: In the Eμ-TCL1 transgenic mouse model, the TCL1 gene is placed under control of a B-cell-specific IgVH promoter and IgH-Eμ enhancer. These mice develop normally into adulthood but later develop enlarged spleens, livers, and lymph nodes that are accompanied by high blood lymphocyte counts. The mice eventually die prematurely as the leukemic cells accumulate along with development of advanced lymphoadenopathy Importantly, the accumulated B-cells in these transgeneic TCL1 mice are G0-1 arrested and express CD19+/CD5+/IgM+ just as the human CLL cells (Bichi et al. (2002) Proc Natl Acad Sci USA, Vol. 99: 6955-6960). As further validation of these Eμ-TCL1 transgenic mice as an effective model of human CLL, CLL symptoms in the TCL1 transgenic mice improve following administration of fludarabine, a clinically used anti-CLL therapeutic. […] The effect of COG112 on CLL cell production and life expectancy in the Eμ-TCL1 transgenic mouse model of CLL is evaluated.
Animals (n=6) are treated with either 10 mg/kg of COG112 or a vehicle control daily by subcutaneous injection. After 15 days of treatment, blood is collected by retro-orbital bleeds and white bloods cells quantitated. White-blood cell counts are expected to be reduced in COG112-treated animals relative to the vehicle controls.
At the initiation of treatment, blood is drawn to determine baseline CD5+/CD19+ CLL cell counts and groups of animals (n=20) are treated with a vehicle control (lactated Ringer's solution) or COG112 at doses of 4.0, 1.0, or 0.25 mg/kg. COG112 or the vehicle control is delivered by intraperitoneal injection at a volume of 10 mL/kg. Animals receive injections daily Monday through Friday so that 5 doses are administered per week for 5 weeks (35 days of total treatment). Disease course is monitored by survival, total blood leukocyte and lymphocyte count, and CD19+/CD5+ cell count weekly.
Blood is collected from each mouse on a weekly basis by retro-orbital bleeds for determination of total blood leukocyte and lymphocyte counts as well as CD19+/CD5+ cell counts to assess the leukemia burden. After 5 weeks (35 days of treatment), mice are euthanized and the post treatment leukemia burden is measured by cell counting, spleen weight, and histological analysis of bone marrow, spleen, liver, and lymph nodes.

[3] = 4.0, 1.0 or 0.25 mg/kg intraperitoneal, 5 weeks, versus vehicle

Ac-RQIKIWFQNRRMKWKKCLRVRLASHLRKLRKRLL-NH2 (N-terminus and C-terminus assumed) [COG112]
IκK activity (IκB Kinase (IκK)): substantially reduced | EC50 [1]: ~20 µM | ED50 for induction of apoptosis (B-CLL cells; B-CLL cells, Annexin V): closely mirrored the ED50 for cytotoxicity | apoptosis (Annexin-V+/propidium iodide+ cells) (B-CLL cells; increasing concentrations of COG112, flow cytometry, FIG. 5): dose-dependent increase in apoptosis | K562 cell growth at reduced concentrations ([2]; 1 μM COG112, 75 nM Imatinib, alone or combined, FIG. 7B): suboptimal inhibition | K562 cell growth ([2]; dose response of COG112, Imatinib 1 μM positive control, FIG. 7A): dose dependent inhibition | level of phosphorylated BCR/ABL (BCR/ABL fusion protein): dose-dependent reduction | PP2A activity (PP2A): robust activation | proliferation of Jurkat T-cells (Jurkat T-cells): significantly inhibited | white-blood cell counts (Eμ-TCL1 transgenic mice; 10 mg/kg daily subcutaneous, 15 days, relative to vehicle): reduced | CD19+/CD5+ cell counts (Eμ-TCL1 transgenic mice; [3]): dose-dependent reduction | CLL burden by histological analysis (Eμ-TCL1 transgenic mice; [3]): dose-dependent reduction | cumulative survival (Eμ-TCL1 transgenic mice; [3]): dose-dependent increase | spleen weight (Eμ-TCL1 transgenic mice; [3]): dose-dependent reduction
